In brackets after ≈: the same amount, converted by molar mass.

The conditions of this data set: 25° C.; for solubility enhanced versus unprotected H-Gly-Gly-Gly-OH: CPME, relative to H-Gly-Gly-Gly-OH.

Turning to `CC(C)[Si](OCC(CO[Si](C(C)C)(C(C)C)C(C)C)(CO[Si](C(C)C)(C(C)C)C(C)C)NC(=O)CCCCCCCCCCOc1ccc(COC(=O)CNC(=O)CNC(=O)CN)c(OCCCCCCCCCCC(=O)NC(CO[Si](C(C)C)(C(C)C)C(C)C)(CO[Si](C(C)C)(C(C)C)C(C)C)CO[Si](C(C)C)(C(C)C)C(C)C)c1)(C(C)C)C(C)C` [H-Gly-Gly-Gly-O-TIPS6], the “solubility in cyclopentyl methyl ether (CPME)” value amounted to 286 mM (≈ 522 mg/mL) and the “solubility enhanced versus unprotected H-Gly-Gly-Gly-OH” value is on record as “about 9,000 fold”.

In the case of `CC(C)[Si](OCCCCCCCCCCCOc1ccc(COC(=O)CNC(=O)CNC(=O)CN)c(OCCCCCCCCCCCO[Si](C(C)C)(C(C)C)C(C)C)c1)(C(C)C)C(C)C` [H-Gly-Gly-Gly-O-TIPS2], the “solubility in cyclopentyl methyl ether (CPME)” value was found to be 181 mM (≈ 175 mg/mL) and the “solubility enhanced versus unprotected H-Gly-Gly-Gly-OH” value is listed as “about 5,000 fold”.
